Results: US20210387952A1, “SOLID STATE FORMS OF D[…] PROCESS FOR PREPARATION THEREOF” (TEVA PHARMACEUTICALS INTERNATIONAL GMBH, priority 2018, published 2021)

Experiment: Solid state (polymorphic and chemical) stability on storage

O=C(O)CNC(=O)c1c(O)n(C2CCCCC2)c(=O)n(C2CCCCC2)c1=O [Form 3, 2-[(1,3-dicyclohexyl-2,4,6-trioxo-1,3-diazinane-5-carbonyl)amino]acetic acid]
polymorphic and chemical stability (crystalline solid form): polymorphically and chemically stable | storage time over which the form is stable (stored in closed bottles): at least 2 weeks
